From patent US20240307374A1, “FORMULATION OF FURIN INHIBITOR FOR INHALATION” (BP ASSET V, INC., priority 2021, published 2024)
Converted amounts (≈) assume the structure as drawn. “Also recorded” adds a separate entry of the source. Like-named read-outs stand apart in the source and are kept apart here. Marks after values point to notes of the source that are not given here.

Key:
Format in all cases: physicochemical
[1] = Equilibrium solubility in pH buffers (3.0-8.0), 20% captisol and water
[2] = Humidity induced experiments (solid-state stability of freeform Type D under different humidities); conditions: ~7%, ~22%, ~43%, ~58%, ~84% RH, RT, 6 weeks
Protocol: The 3-mL vial was then placed into a 20-mL vial with 4 mL of the corresponding saturated salt solution. The 20-mL vial was sealed with a cap and kept at RT for the water vapor to interact with the solid.

[3] = Complexation stability constant test: solubility in SBECD solutions; conditions: for solubility at 24 h: thermodynamic from solid
Protocol: Additional solid was added into the sample to generate suspension if clear solution was obtained. The suspension was equilibrated via stirring (1000 rpm) for 24 hours. The suspension was centrifuged to obtain precipitate and supernatants. Solubility and pH was determined for the supernatants after filtration, and XRPD was obtained for the isolated precipitate.

[4] = Solution stability in citrate buffers; conditions: 28 days
Protocol: The stability samples were stored under 5° C. and 25° C. for 28 days, respectively. After 28 days storage, the stability samples were taken out for HPLC test and pH test.
Waters H-class UPLC (ultra-performance liquid chromatography) was used for purity, solubility, assay and stability test. Detailed method is shown in Table 9-22, Table 9-23 and Table 9-24.

[5] = In situ salt solubility test (citric acid, fumaric acid); conditions: for solubility: filtrate, read-out: Concentration (in situ salt solubility)
Text: The sample was almost clear (little solid was observed) and filtered for a solubility test.

[6] = Solubility profile of freeform Type D in citrate buffers; conditions: for solubility at 24 h: thermodynamic from solid, read-out: Solubility
Protocol: Additional solids were added into the sample to generate suspension if clear solution was obtained. The suspension was equilibrated via stirring (1000 rpm) for 24 hours. The suspension was centrifuged to obtain precipitate and supernatants. Solubility and pH were tested for the supernatants after filtration, and the isolated precipitate was tested by XRPD.

[7] = 20% Captisol (pH = 5.0, w/v), 24 hrs
[8] = pH = 3.0 buffer (50 mM HCl + KCl), 24 hrs
[9] = pH = 5.0 buffer (50 mM citrate), 24 hrs
[10] = pH = 6.0 buffer (50 mM citrate), 24 hrs
[11] = pH = 7.0 buffer (50 mM phosphate), 24 hrs
[12] = pH = 8.0 buffer (50 mM phosphate), 24 hrs
[13] = ~1 mg/mL in 10 mM citrate buffer (pH 4.3), 5° C.
[14] = ~1 mg/mL in 10 mM citrate buffer (pH 4.3), 25° C.
[15] = ~40 mg/mL in 100 mM citrate buffer (pH 4.1), 5° C.
[16] = ~40 mg/mL in 100 mM citrate buffer (pH 4.1), 25° C.
[17] = 1.1 equiv. of citric acid in water
[18] = 1.1 equivalent of fumaric acid in water

Compound: CC(=O)NCC1CCN(Cc2cc(Oc3ccc(N4CCN(CCC(=O)O)CC4)nc3)nc(-c3cc(Cl)cc(Cl)c3)c2)CC1 [Freeform Type A]
- solubility at 24 h ([1]; 50 mM phosphate buffer, 21 °C, pH 8, aqueous buffer, thermodynamic from solid, pH = 8.0 buffer (50 mM phosphate), RT, 24 hrs, read-out: S: solubility): 20 µg/mL (≈ 0.0312 mM)
- FC: form change (XRPD of precipitate) [1, 7]: N (N: solid form not changed)
- pH of supernatant (final pH) [1, 7]: 7.7
- S: solubility ([1]; 20% Captisol (pH = 5.0, w/v), RT, 24 hrs): 12.1 mg/mL
- FC: form change (XRPD of precipitate) ([1]; H2O, 24 hrs): N (N: solid form not changed)
- pH of supernatant (final pH) ([1]; H2O, 24 hrs): 6.8
- form change after equilibrium in all media ([1]; all media, 24 hours): No form change
- FC: form change (XRPD of precipitate) [1, 8]: N (N: solid form not changed)
- pH of supernatant (final pH) [1, 8]: 6.3
- S: solubility ([1]; pH = 3.0 buffer (50 mM HCl + KCl), RT, 24 hrs): 0.05 mg/mL
- pH of supernatant (final pH) ([1]; pH = 4.0 buffer (50 mM citrate), 24 hrs): 4.8
- S: solubility ([1]; pH = 4.0 buffer (50 mM citrate), RT, 24 hrs): >17.9^# mg/mL
- FC: form change (XRPD of precipitate) [1, 9]: N (N: solid form not changed)
- pH of supernatant (final pH) [1, 9]: 5.2
- S: solubility ([1]; pH = 5.0 buffer (50 mM citrate), RT, 24 hrs): 3.31 mg/mL
- FC: form change (XRPD of precipitate) [1, 10]: N (N: solid form not changed)
- pH of supernatant (final pH) [1, 10]: 6.1
- S: solubility ([1]; pH = 6.0 buffer (50 mM citrate), RT, 24 hrs): 0.18 mg/mL
- FC: form change (XRPD of precipitate) [1, 11]: N (N: solid form not changed)
- pH of supernatant (final pH) [1, 11]: 7.1
- FC: form change (XRPD of precipitate) [1, 12]: N (N: solid form not changed)
- pH of supernatant (final pH) [1, 12]: 8.0

Compound: CC(=O)NCC1CCN(Cc2cc(Oc3ccc(N4CCN(CCC(=O)O)CC4)nc3)nc(-c3cc(Cl)cc(Cl)c3)c2)CC1 [Freeform Type D]
- form change after exposure to different humidity levels (XRPD) [2]: no form change; also recorded: kinetically stable for at least 6 weeks
- solubility at 24 h ([3]; 5% (w/w) SBECD solution, aqueous with cosolvent or surfactant or cyclodextrin, 5% (w/w) SBECD, RT, 24 hours, final pH 7.8, read-out: Solubility): 2610 µg/mL
- solubility at 24 h ([3]; 5% (w/w) SBECD solution, pH 7.8, aqueous with cosolvent or surfactant or cyclodextrin, 5% SBECD (54.23 mmol/L), read-out: API Solubility): 4.07 mM
- solubility at 24 h ([3]; 10% (w/w) SBECD solution, aqueous with cosolvent or surfactant or cyclodextrin, 10% (w/w) SBECD, RT, 24 hours, final pH 7.9, read-out: Solubility): 6470 µg/mL
- solubility at 24 h ([3]; 10% (w/w) SBECD solution, pH 7.9, aqueous with cosolvent or surfactant or cyclodextrin, 10% SBECD (108.46 mmol/L), read-out: API Solubility): 10.1 mM
- solubility at 24 h ([3]; 15% (w/w) SBECD solution, aqueous with cosolvent or surfactant or cyclodextrin, 15% (w/w) SBECD, RT, 24 hours, final pH 7.9, read-out: Solubility): 8810 µg/mL
- solubility at 24 h ([3]; 15% (w/w) SBECD solution, pH 7.9, aqueous with cosolvent or surfactant or cyclodextrin, 15% SBECD (162.70 mmol/L), read-out: API Solubility): 13.7 mM
- solubility at 24 h ([3]; 20% (w/w) SBECD solution, aqueous with cosolvent or surfactant or cyclodextrin, 20% (w/w) SBECD, RT, 24 hours, final pH 7.9, read-out: Solubility): 9350 µg/mL
- solubility at 24 h ([3]; 20% (w/w) SBECD solution, pH 7.9, aqueous with cosolvent or surfactant or cyclodextrin, 20% SBECD (216.93 mmol/L), read-out: API Solubility): 14.6 mM
- solubility at 24 h ([3]; 25% (w/w) SBECD solution, aqueous with cosolvent or surfactant or cyclodextrin, 25% (w/w) SBECD, RT, 24 hours, final pH 7.9, read-out: Solubility): 11000 µg/mL
- solubility at 24 h ([3]; 25% (w/w) SBECD solution, pH 7.9, aqueous with cosolvent or surfactant or cyclodextrin, 25% SBECD (271.16 mmol/L), read-out: API Solubility): 17.1 mM
- form change during solubility evaluation (XRPD) ([3]; SBECD solutions, 24 hours): No form change
- complexation stability constant K^1:1 ([3]; SBECD, Higuchi-Connors phase-solubility method): 3831 M⁻¹
- degradation ([4]; 40 mg/mL in 100 mM citrate buffer, 5° C. and 25° C.): No significant degradation
- Appearance [4, 13]: yellow solution
- Assay [4, 13]: 68.4%
- Purity [4, 13]: 89.0 Area %
- pH [4, 13]: 4.7
- Appearance [4, 14]: cloudy and yellow
- Assay [4, 14]: 11.6%
- Purity [4, 14]: 78.9 Area %
- pH [4, 14]: 4.6
- Appearance [4, 15]: became cloudy
- Assay [4, 15]: 95.0%
- Purity [4, 15]: 99.7 Area %
- pH [4, 15]: 4.8
- Appearance [4, 16]: remained a clear solution
- Assay [4, 16]: 98.9%
- Purity [4, 16]: 99.5 Area %
- pH [4, 16]: 4.9
- HPLC purity of filtrates [5, 17]: 99.9% Area %
- pH [5, 17]: 3.4
- HPLC purity of filtrates [5, 18]: 99.8% Area %
- pH [5, 18]: 4.0
- solubility ([5]; water with 1.1 equivalent of citric acid, pH 3.4, thermodynamic from solid, 1.1 equiv. of citric acid in water): 39300 µg/mL
- solubility ([5]; water with 1.1 equivalent of fumaric acid, pH 4, thermodynamic from solid, 1.1 equivalent of fumaric acid in water): 1100 µg/mL
- solubility at 24 h ([6]; 50 mM citrate buffer, pH 4.89, aqueous buffer): 13200 µg/mL (≈ 20.6 mM)
- form change after equilibrium in all citrate buffers (XRPD) ([6]; 10/20/50/100 mM citrate buffers, 24 hours): No form change
- solubility at 24 h ([6]; aqueous buffer, 10 mM citrate buffer, buffer pH 2.88, RT, 24 hours, end pH 4.47): 8600 µg/mL (≈ 13.4 mM)
- solubility at 24 h ([6]; aqueous buffer, 10 mM citrate buffer, buffer pH 3.34, RT, 24 hours, end pH 4.57): 4000 µg/mL (≈ 6.23 mM)
- solubility at 24 h ([6]; aqueous buffer, 10 mM citrate buffer, buffer pH 3.89, RT, 24 hours, end pH 4.76): 3400 µg/mL (≈ 5.3 mM)
- solubility at 24 h ([6]; aqueous buffer, 10 mM citrate buffer, buffer pH 4.30, RT, 24 hours, end pH 4.82): 2100 µg/mL (≈ 3.27 mM)
- solubility at 24 h ([6]; aqueous buffer, 10 mM citrate buffer, buffer pH 4.90, RT, 24 hours, end pH 5.21): 700 µg/mL (≈ 1.09 mM)
- solubility at 24 h ([6]; aqueous buffer, 20 mM citrate buffer, buffer pH 3.02, RT, 24 hours, end pH 4.59): 14000 µg/mL (≈ 21.8 mM)
- solubility at 24 h ([6]; aqueous buffer, 20 mM citrate buffer, buffer pH 3.55, RT, 24 hours, end pH 4.69): 9800 µg/mL (≈ 15.3 mM)
- solubility at 24 h ([6]; aqueous buffer, 20 mM citrate buffer, buffer pH 4.01, RT, 24 hours, end pH 4.67): 5500 µg/mL (≈ 8.57 mM)
- solubility at 24 h ([6]; aqueous buffer, 20 mM citrate buffer, buffer pH 4.60, RT, 24 hours, end pH 4.91): 2300 µg/mL (≈ 3.58 mM)
- solubility at 24 h ([6]; aqueous buffer, 20 mM citrate buffer, buffer pH 4.98, RT, 24 hours, end pH 5.28): 800 µg/mL (≈ 1.25 mM)
- solubility at 24 h ([6]; aqueous buffer, 50 mM citrate buffer, buffer pH 3.76, RT, 24 hours, end pH 4.82): 23800 µg/mL (≈ 37.1 mM)
- solubility at 24 h ([6]; aqueous buffer, 50 mM citrate buffer, buffer pH 4.70, RT, 24 hours, end pH 4.93): 4700 µg/mL (≈ 7.33 mM)
- solubility at 24 h ([6]; aqueous buffer, 50 mM citrate buffer, buffer pH 5.27, RT, 24 hours, end pH 5.33): 800 µg/mL (≈ 1.25 mM)
- solubility at 24 h ([6]; aqueous buffer, 100 mM citrate buffer, buffer pH 3.60, RT, 24 hours, end pH 4.92): 24300 µg/mL (≈ 37.9 mM)
- solubility at 24 h ([6]; aqueous buffer, 100 mM citrate buffer, buffer pH 4.07, RT, 24 hours, end pH 4.88): 56800 µg/mL (≈ 88.5 mM)
- solubility at 24 h ([6]; aqueous buffer, 100 mM citrate buffer, buffer pH 4.51, RT, 24 hours, end pH 5.03): 21200 µg/mL (≈ 33 mM)
- solubility at 24 h ([6]; aqueous buffer, 100 mM citrate buffer, buffer pH 5.03, RT, 24 hours, end pH 5.16): 4400 µg/mL (≈ 6.86 mM)
- solubility at 24 h ([6]; pH 4.7, aqueous buffer, 50 mM citrate buffer, buffer pH 3.23, RT, 24 hours, end pH 4.70): 33200 µg/mL (≈ 51.7 mM)
- solubility at 24 h ([6]; pH 5.5, aqueous buffer, 100 mM citrate buffer, buffer pH 5.42, RT, 24 hours, end pH 5.50): 600 µg/mL (≈ 0.935 mM)
